Measured values reported in ChEMBL document CHEMBL2390874, “Synthesis, antibacterial activity and cytotoxicity of new fused pyrazolo[1,5-a]pyrimidine and pyrazolo[5,1-c][1,2,4]triazine derivatives from new 5-aminopyrazoles” (Eur J Med Chem, 2013).
≈ marks a conversion by molar mass, not a printed value. Calls of active or inactive are those of the source. The rule behind the calls is not given here.

Columns and labels:
[1] = Selectivity index, ratio of CC50 for african green monkey vero cells to MIC for Escherichia coli ATCC 10536; format: functional
[2] = Selectivity index, ratio of CC50 for african green monkey vero cells to MIC for Bacillus subtilis ATCC 11774; format: functional
[3] = Selectivity index, ratio of CC50 for african green monkey vero cells to MIC for Staphylococcus aureus ATCC 25923; format: functional
Salmonella typhimurium = assay: Antibacterial activity against Salmonella typhimurium ATCC 51812 assessed as growth inhibition at 1 mg/ml after 24 hrs by agar diffusion method; format: functional, organism-based; details: Salmonella enterica subsp. enterica serovar Typhimurium
Enterococcus faecalis = assay: Antibacterial activity against Enterococcus faecalis ATCC 14506 assessed as growth inhibition at 1 mg/ml after 24 hrs by agar diffusion method; format: functional, organism-based
[4] = test system: Staphylococcus epidermidis; assay: Antibacterial activity against Staphylococcus epidermidis ATCC 12228 assessed as growth inhibition at 1 mg/ml after 24 hrs by agar diffusion method; format: functional, organism-based
[5] = Cytotoxicity against african green monkey vero cells by MTT assay; format: cell-based; details: chlorocebus sabaeus
Staphylococcus aureus [6] = assay: Antibacterial activity against methicillin-resistant Staphylococcus aureus ATCC 43300 assessed as growth inhibition at 1 mg/ml after 24 hrs by agar diffusion method; format: functional, organism-based
Staphylococcus aureus [7] = assay: Bactericidal activity against Staphylococcus aureus ATCC 25923 by broth dilution method; format: functional
Escherichia coli [8] = assay: Bactericidal activity against Escherichia coli ATCC 10536 by broth dilution method; format: functional
Bacillus subtilis [9] = assay: Bactericidal activity against Bacillus subtilis ATCC 11774 by broth dilution method; format: functional
Escherichia coli [10] = assay: Antibacterial activity against Escherichia coli ATCC 10536 assessed as growth inhibition by broth dilution method; format: functional
Staphylococcus aureus [11] = assay: Antibacterial activity against Staphylococcus aureus ATCC 25923 assessed as growth inhibition by broth dilution method; format: functional
Serratia marcescens = assay: Antibacterial activity against Serratia marcescens ATCC 13880 assessed as growth inhibition at 1 mg/ml after 24 hrs by agar diffusion method; format: functional; details: ATCC 13880, 24 h, read-out: DIZ
Bacillus subtilis [12] = assay: Antibacterial activity against Bacillus subtilis ATCC 11774 assessed as growth inhibition by broth dilution method; format: functional
Pseudomonas aeruginosa [13] = assay: Antibacterial activity against Pseudomonas aeruginosa ATCC 10145 assessed as growth inhibition at 1 mg/ml after 24 hrs by agar diffusion method; format: functional; details: ATCC 10145, 24 h, read-out: DIZ
Escherichia coli [14] = assay: Antibacterial activity against Escherichia coli ATCC 10536 assessed as growth inhibition at 1 mg/ml after 24 hrs by agar diffusion method; format: functional; details: ATCC 10536, 24 h, read-out: DIZ
Staphylococcus aureus [15] = assay: Antibacterial activity against Staphylococcus aureus ATCC 25923 assessed as growth inhibition at 1 mg/ml after 24 hrs by agar diffusion method; format: functional; details: ATCC 25923, 24 h, read-out: DIZ
Bacillus subtilis [16] = assay: Antibacterial activity against Bacillus subtilis ATCC 11774 assessed as growth inhibition at 1 mg/ml after 24 hrs by agar diffusion method; format: functional; details: ATCC 11774, 24 h, read-out: DIZ
[17] = Selectivity index, ratio of CC50 for african green monkey vero cells to MIC for Pseudomonas aeruginosa ATCC 10145; format: functional
Pseudomonas aeruginosa [18] = assay: Bactericidal activity against Pseudomonas aeruginosa ATCC 10145 by broth dilution method; format: functional
Pseudomonas aeruginosa [19] = assay: Antibacterial activity against Pseudomonas aeruginosa ATCC 10145 assessed as growth inhibition by broth dilution method; format: functional

In the case of `Cc1ccc(C)n1-c1[nH]nc(N2CCOCC2)c1C#N`, the “Selectivity Index” value [1] is reported as 0.06, the “Selectivity Index” value [2] is reported as 0.13 and the “Selectivity Index” value [3] is reported as 0.06. For the same compound, the “growth inhibition (GI)” value (Salmonella typhimurium) was “inactive”, the “growth inhibition (GI)” value (Enterococcus faecalis) was “inactive” and the “growth inhibition (GI)” value [4] was “inactive”. For the same compound, the CC50 [5] was 254 µg/mL (≈ 0.936 mM), the “growth inhibition (GI)” value (Staphylococcus aureus [6]) was “inactive” and the MBC (Staphylococcus aureus [7]) was 4000 µg/mL (≈ 14.7 mM). It also gave an MBC (Escherichia coli [8]) of 8000 µg/mL (≈ 29.5 mM), an MBC (Bacillus subtilis [9]) of 4000 µg/mL (≈ 14.7 mM) and an MIC (Escherichia coli [10]) of 4000 µg/mL (≈ 14.7 mM). For the same compound, the MIC (Staphylococcus aureus [11]) was 2000 µg/mL (≈ 7.37 mM), the zone of inhibition at 1000 µg/mL (Serratia marcescens) was 6 mm and the MIC (Bacillus subtilis [12]) was 2000 µg/mL (≈ 7.37 mM). For the same compound, the zone of inhibition at 1000 µg/mL (Pseudomonas aeruginosa [13]) was 6 mm, the zone of inhibition at 1000 µg/mL (Escherichia coli [14]) was 10 mm and the zone of inhibition at 1000 µg/mL (Staphylococcus aureus [15]) was 10 mm. It also gave a zone of inhibition at 1000 µg/mL (Bacillus subtilis [16]) of 14 mm.

With `N#Cc1c(N)nc2c(C#N)c(N3CCCC3)nn2c1N1CCCCC1` the “growth inhibition (GI)” value (Salmonella typhimurium) was “inactive”, the “growth inhibition (GI)” value (Enterococcus faecalis) was “inactive” and the “growth inhibition (GI)” value [4] was “inactive”. The “growth inhibition (GI)” value (Staphylococcus aureus [6]) was “inactive”.

For `Cc1ccc(C)n1-c1[nH]nc(N2CCCC2)c1C#N`, the “Selectivity Index” value [1] was 0.07, the “Selectivity Index” value [2] was 0.14 and the “Selectivity Index” value [3] was 0.07. The “growth inhibition (GI)” value (Salmonella typhimurium) was “inactive”, the “growth inhibition (GI)” value (Enterococcus faecalis) was “inactive” and the “growth inhibition (GI)” value [4] was “inactive”. The CC50 [5] was 550 µg/mL (≈ 2.15 mM), the “growth inhibition (GI)” value (Staphylococcus aureus [6]) was “inactive” and the MBC (Staphylococcus aureus [7]) was 8000 µg/mL (≈ 31.3 mM). The MBC (Escherichia coli [8]) was 16000 µg/mL (≈ 62.7 mM), the MBC (Bacillus subtilis [9]) was 8000 µg/mL (≈ 31.3 mM) and the MIC (Escherichia coli [10]) was 8000 µg/mL (≈ 31.3 mM). The MIC (Staphylococcus aureus [11]) was 8000 µg/mL (≈ 31.3 mM), the zone of inhibition at 1000 µg/mL (Serratia marcescens) was 6 mm and the MIC (Bacillus subtilis [12]) was 4000 µg/mL (≈ 15.7 mM). For the same compound, the zone of inhibition at 1000 µg/mL (Pseudomonas aeruginosa [13]) was 6 mm, the zone of inhibition at 1000 µg/mL (Escherichia coli [14]) was 13 mm and the zone of inhibition at 1000 µg/mL (Staphylococcus aureus [15]) was 7 mm. For the same compound, the zone of inhibition at 1000 µg/mL (Bacillus subtilis [16]) was 8 mm.

For `Cc1cc(C)n2nc(N3CCCC3)c(C#N)c2n1`, the “growth inhibition (GI)” value (Salmonella typhimurium) was “inactive”, the “growth inhibition (GI)” value (Enterococcus faecalis) was “inactive” and the “growth inhibition (GI)” value [4] was “inactive”. For the same compound, the “growth inhibition (GI)” value (Staphylococcus aureus [6]) was “inactive”.

In the case of `CC(=O)c1nnc2c(C#N)c(N3CCCC3)nn2c1C`, the “growth inhibition (GI)” value (Salmonella typhimurium) is reported as “inactive”, the “growth inhibition (GI)” value (Enterococcus faecalis) is reported as “inactive” and the “growth inhibition (GI)” value [4] is reported as “inactive”. For the same compound, the “growth inhibition (GI)” value (Staphylococcus aureus [6]) was “inactive”.

With `N#Cc1nnc2c(C#N)c(N3CCCCC3)nn2c1N` the “Selectivity Index” value [17] was 0.09, the “Selectivity Index” value [1] was 0.09 and the “Selectivity Index” value [2] was 0.09. The “Selectivity Index” value [3] was 0.09, the “growth inhibition (GI)” value (Salmonella typhimurium) was “inactive” and the “growth inhibition (GI)” value (Enterococcus faecalis) was “inactive”. The “growth inhibition (GI)” value [4] was “inactive”, the CC50 [5] was 1400 µg/mL (≈ 5.22 mM) and the “growth inhibition (GI)” value (Staphylococcus aureus [6]) was “inactive”. It also gave an MBC (Pseudomonas aeruginosa [18]) of 16000 µg/mL (≈ 59.6 mM), an MBC (Staphylococcus aureus [7]) of 16000 µg/mL (≈ 59.6 mM) and an MBC (Escherichia coli [8]) of 16000 µg/mL (≈ 59.6 mM). It also gave an MBC (Bacillus subtilis [9]) of 16000 µg/mL (≈ 59.6 mM), an MIC (Escherichia coli [10]) of 16000 µg/mL (≈ 59.6 mM) and an MIC (Pseudomonas aeruginosa [19]) of 16000 µg/mL (≈ 59.6 mM). The MIC (Staphylococcus aureus [11]) was 16000 µg/mL (≈ 59.6 mM), the zone of inhibition at 1000 µg/mL (Serratia marcescens) was 6 mm and the MIC (Bacillus subtilis [12]) was 16000 µg/mL (≈ 59.6 mM). It also gave a zone of inhibition at 1000 µg/mL (Pseudomonas aeruginosa [13]) of 7 mm, a zone of inhibition at 1000 µg/mL (Escherichia coli [14]) of 10 mm and a zone of inhibition at 1000 µg/mL (Staphylococcus aureus [15]) of 11 mm. It also gave a zone of inhibition at 1000 µg/mL (Bacillus subtilis [16]) of 11 mm.

For `CC(=O)n1nc(N2CCCCC2)c(C#N)c1N`, the “Selectivity Index” value [2] was 0.06, the “growth inhibition (GI)” value (Salmonella typhimurium) was “inactive” and the “growth inhibition (GI)” value (Enterococcus faecalis) was “inactive”. For the same compound, the “growth inhibition (GI)” value [4] was “inactive”, the CC50 [5] was 1010 µg/mL (≈ 4.35 mM) and the “growth inhibition (GI)” value (Staphylococcus aureus [6]) was “inactive”. For the same compound, the MBC (Staphylococcus aureus [7]) was > 16000 µg/mL, the MBC (Escherichia coli [8]) was 16000 µg/mL (≈ 68.6 mM) and the MBC (Bacillus subtilis [9]) was 16000 µg/mL (≈ 68.6 mM). The MIC (Escherichia coli [10]) was 16000 µg/mL (≈ 68.6 mM), the MIC (Staphylococcus aureus [11]) was 16000 µg/mL (≈ 68.6 mM) and the zone of inhibition at 1000 µg/mL (Serratia marcescens) was 6 mm. It also gave an MIC (Bacillus subtilis [12]) of 16000 µg/mL (≈ 68.6 mM), a zone of inhibition at 1000 µg/mL (Pseudomonas aeruginosa [13]) of 6 mm and a zone of inhibition at 1000 µg/mL (Escherichia coli [14]) of 10 mm. For the same compound, the zone of inhibition at 1000 µg/mL (Staphylococcus aureus [15]) was 10 mm and the zone of inhibition at 1000 µg/mL (Bacillus subtilis [16]) was 6 mm.

For `N#Cc1nnc2c(C#N)c(N3CCOCC3)nn2c1N`, the “growth inhibition (GI)” value (Salmonella typhimurium) was “inactive”, the “growth inhibition (GI)” value (Enterococcus faecalis) was “inactive” and the “growth inhibition (GI)” value [4] was “inactive”. For the same compound, the “growth inhibition (GI)” value (Staphylococcus aureus [6]) was “inactive”.

In the case of GENTAMICIN, the MBC (Pseudomonas aeruginosa [18]) is reported as 2 µg/mL and the MIC (Pseudomonas aeruginosa [19]) is reported as 1 µg/mL.

In the case of `N#Cc1nnc2c(C#N)c(N3CCCC3)nn2c1N`, the “growth inhibition (GI)” value (Salmonella typhimurium) is reported as “inactive”, the “growth inhibition (GI)” value (Enterococcus faecalis) is reported as “inactive” and the “growth inhibition (GI)” value [4] is reported as “inactive”. For the same compound, the “growth inhibition (GI)” value (Staphylococcus aureus [6]) was “inactive”.

In the case of `CC(=O)n1nc(N2CCOCC2)c(C#N)c1N`, the “growth inhibition (GI)” value (Salmonella typhimurium) is reported as “inactive”, the “growth inhibition (GI)” value (Enterococcus faecalis) is reported as “inactive” and the “growth inhibition (GI)” value [4] is reported as “inactive”. For the same compound, the “growth inhibition (GI)” value (Staphylococcus aureus [6]) was “inactive”.
